The supplement of paper PMC10307832

Tests used:
Assay in all cases: relative viability (nuclei count vs DMSO), 5 days (fraction); higher = more cells survive
[1] = compound: C#Cc1cccc(Nc2ncnc3cc(OCCOC)c(OCCOC)cc23)c1 [Erlotinib] + CC1(C)CCC(c2ccc(Cl)cc2)=C(CN2CCN(c3ccc(C(=O)NS(=O)(=O)c4ccc(N[C@H](CCN5CCOCC5)CSc5ccccc5)c(S(=O)(=O)C(F)(F)F)c4)cc3)CC2)C1 [Navitoclax] (partner 0.5 µM)
In short: (§1)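 Lung cancer cell lines were pin-tool dosed in 1536-well plates on the day after seeding, with either a lone drug or a fixed anchor-drug dose plus five library-drug doses (not always all listed) in √10 steps. Nuclei were counted on 4× images after 5 days. Relative viability is the ratio of treated-well to vehicle-well nuclei counts, with each value a median of duplicate plates.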

[2] = compound: C#Cc1cccc(Nc2ncnc3cc(OCCOC)c(OCCOC)cc23)c1 [Erlotinib] + COc1cccc2cc(-c3nc([C@H]4CC[C@H](C(=O)O)CC4)n4ncnc(N)c34)[nH]c12 [OSI-027] (partner 0.5 µM)
In short: as §1

[3] = compound: O=C(Nc1c[nH]nc1-c1nc2ccc(CN3CCOCC3)cc2[nH]1)NC1CC1 [AT9283] + C[C@@H](Oc1cc(-c2cnn(C3CCNCC3)c2)cnc1N)c1c(Cl)ccc(F)c1Cl [Crizotinib] (partner 1 µM)
In short: as §1

[4] = compound: O=C(Nc1c[nH]nc1-c1nc2ccc(CN3CCOCC3)cc2[nH]1)NC1CC1 [AT9283] + NC(=O)Nc1cc(-c2cccc(F)c2)sc1C(=O)N[C@H]1CCCNC1 [AZD7762] (partner 0.2 µM)
In short: as §1

[5] = compound: O=C(Nc1c[nH]nc1-c1nc2ccc(CN3CCOCC3)cc2[nH]1)NC1CC1 [AT9283] + Nc1ncn([C@H]2C[C@H](O)[C@@H](CO)O2)c(=O)n1 [Decitabine] (partner 2 µM)
In short: as §1

Row | Cell Line | relative viability ([1]; first compound 0.02 µM) | relative viability ([1]; first compound 0.2 µM) | relative viability ([1]; first compound 0.6325 µM) | relative viability ([2]; first compound 0.2 µM) | relative viability ([2]; first compound 0.6325 µM) | relative viability ([2]; first compound 2 µM) | relative viability ([3]; first compound 0.003 µM) | relative viability ([3]; first compound 0.03 µM) | relative viability ([3]; first compound 0.09487 µM) | relative viability ([3]; first compound 0.3 µM) | relative viability ([4]; first compound 0.003 µM) | relative viability ([4]; first compound 0.03 µM) | relative viability ([4]; first compound 0.09487 µM) | relative viability ([4]; first compound 0.3 µM) | relative viability ([5]; first compound 0.003 µM) | relative viability ([5]; first compound 0.03 µM) | relative viability ([5]; first compound 0.09487 µM) | relative viability ([5]; first compound 0.3 µM) | relative viability ([1]; first compound 2 µM) | relative viability ([2]; first compound 0.02 µM)
1 | NCI-H460 | 1.09 | 0.867 | 1.44 | 0.547 | 0.469 | 0.217 | 0.729 | 0.786 | 0.0665 | 0.0361 | 0.543 | 0.687 | 0.131 | 0.11 | 0.434 | 0.466 | 0.24 | 0.078 | – | –
2 | ChaGo-K-1 | 0.68 | 0.981 | 1.25 | 0.55 | 0.549 | 0.434 | 0.973 | 0.416 | 0.343 | 0.387 | 0.88 | 0.685 | 0.404 | 0.222 | 0.483 | 0.523 | 0.26 | 0.222 | 0.777 | 0.695
3 | EMC-BAC-2 | 1.13 | 1.04 | 0.974 | 0.416 | 0.353 | 0.302 | 0.67 | 0.36 | 0.163 | 0.151 | 1.04 | 0.411 | 0.349 | 0.281 | 0.992 | 0.496 | 0.338 | 0.321 | 0.906 | 0.394
4 | HCC-44 | 0.992 | 0.866 | 1.05 | 0.571 | 0.412 | 0.435 | 0.775 | 0.634 | 0.457 | 0.211 | 1.04 | 1.05 | 1.02 | 0.971 | 0.702 | 0.969 | 0.749 | 0.871 | 0.868 | 0.505
5 | PC-3 [JPC-3] | 0.653 | 0.443 | 0.349 | 0.334 | 0.178 | 0.215 | 0.929 | 0.832 | 0.608 | 0.509 | 0.826 | 0.741 | 0.609 | 0.394 | 0.837 | 0.798 | 0.695 | 0.541 | 0.295 | 0.735
6 | LXF-289 | 0.904 | 0.991 | 0.933 | 0.766 | 0.721 | 0.551 | 0.829 | 0.511 | 0.151 | 0.138 | 1.11 | 0.782 | 0.141 | 0.096 | 0.354 | 0.423 | 0.214 | 0.139 | 0.869 | 0.79
7 | NCI-H2126 | 0.879 | 0.707 | 0.537 | 0.592 | 0.532 | 0.366 | 0.943 | 1.02 | 0.69 | 0.465 | 0.979 | 1.05 | 0.969 | 0.339 | 0.589 | 0.625 | 0.439 | 0.303 | 0.402 | 0.668
8 | BEN | 0.0747 | 0.0625 | 0.0619 | 0.301 | 0.317 | 0.304 | 0.818 | 0.663 | 0.207 | 0.236 | 0.595 | 0.62 | 0.327 | 0.321 | 0.52 | 0.557 | 0.347 | 0.347 | 0.0646 | 0.334
9 | NCI-H3122 | 1.05 | 1.04 | 1.01 | 1.06 | 0.998 | 0.641 | 0.291 | 0.259 | 0.216 | 0.214 | 0.958 | 0.917 | 0.363 | 0.17 | 0.472 | 0.397 | 0.296 | 0.136 | 1.03 | 0.946
